Data reported in patent US9695155B2, “Herbicidal substituted pyrimidinyloxy benzene compounds” (E. I. DU PONT DE NEMOURS AND COMPANY, priority 2013, dated 2017).

Columns and labels:
bluegrass = experiment: Test D postemergence; format: in vivo, Poa annua
Excerpt: Seeds of plant species selected from bluegrass (annual bluegrass, Poa annua), blackgrass (Alopecurus myosuroides), canarygrass (littleseed canarygrass, Phalaris minor), chickweed (common chickweed, Stellaria media), galium (catchweed bedstraw, Galium aparine), bromegrass, downy (downy bromegrass, Bromus tectorum), field poppy (Papaver rhoeas), field violet (Viola arvensis), green foxtail (Setaria viridis), deadnettle (henbit deadnettle, Lamium amplexicaule), Italian ryegrass (Lolium multiflorum), kochia (Kochia scoparia), lambsquarters (Chenopodium album), oilseed rape (Brassica napus), pigweed (Amaranthus retroflexus), chamomile (scentless chamomile, Matricaria inodora), Russian thistle (Salsola kali), speedwell (bird's-eye speedwell, Veronica persica), spring barley (Hordeum vulgare), spring wheat (Triticum aestivum), wild buckwheat (Polygonum convolvulus), wild mustard (Sinapis arvensis), wild oat (Avena fatua), wild radish (Raphanus raphanistrum), windgrass (Apera spica-venti), winter barley (Hordeum vulgare), and winter wheat (Triticum aestivum) were planted into a silt loam soil and treated preemergence with test chemicals formulated in a non-phytotoxic solvent mixture which included a surfactant.
At the same time, these species were planted in pots containing Redi-Earth® planting medium (Scotts Company, 14111 Scottslawn Road, Marysville, Ohio 43041) comprising spaghnum peat moss, vermiculite, wetting agent and starter nutrients and treated with postemergence applications of the test chemicals formulated in the same manner. Plants ranged in height from 2 to 18 cm (1- to 4-leaf stage). Treated plants and controls were maintained in a controlled growth environment for 7 to 21 days after which time all species were compared to controls and visually evaluated. Plant response ratings, summarized in Table D, are based on a scale of 0 to 100 where 0 is no effect and 100 is complete control. A dash (-) response means no test result.

corn = experiment: Test E postemergence; format: in vivo, Zea mays; settings: Zea mays, post-emergence
In short: (§1)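 Response was scored visually on a 0-100 scale (100 = complete control) versus controls after 14 to 21 days in the greenhouse. Test chemicals, formulated with surfactant in a non-phytotoxic solvent mixture, had been applied preemergence to seeds in silt loam soil or postemergence to 1- to 4-leaf plants in potting medium.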

wild poinsettia = experiment: Test E postemergence; format: in vivo, Euphorbia heterophylla; settings: Euphorbia heterophylla, post-emergence, read-out: Plant response rating, Poinsettia, Wild
In short: as §1

palmer pigweed = experiment: Test E postemergence; format: in vivo, Amaranthus palmeri; settings: post-emergence, read-out: Plant response rating, Pigweed, Palmer
In short: as §1

barnyardgrass = experiment: Test E postemergence; format: in vivo, Echinochloa crus-galli; settings: Echinochloa crus-galli, post-emergence, read-out: Plant response rating, Barnyardgrass
In short: as §1

[1] = postemergence, 16 g ai/ha, scale 0 to 100, 0 no effect, 100 complete control
[2] = Postemergence, 31 g ai/ha, scale 0 to 100
[3] = Postemergence, 62 g ai/ha, scale 0 to 100
[4] = Postemergence, 125 g ai/ha, scale 0 to 100
[5] = postemergence, 8 g ai/ha, scale 0 to 100, 0 no effect, 100 complete control

Compound: FCc1cccc(Oc2ncc(Cl)cn2)c1-n1cc(I)cn1 [Compound 245]
- Plant response rating, Bluegrass (bluegrass; Postemergence, 62 g ai/ha, scale 0 to 100 (0 no effect, 100 complete control)): 15
- Plant response rating, Bluegrass (bluegrass; Postemergence, 31 g ai/ha, scale 0 to 100 (0 no effect, 100 complete control)): 20
- Plant response rating, Bluegrass (bluegrass; Postemergence, 125 g ai/ha, scale 0 to 100 (0 no effect, 100 complete control)): 30
- Plant response rating, Bluegrass (bluegrass; [1]): 10

Compound: N#Cc1cccc(Oc2ncc(Cl)cn2)c1-n1cc(OCC(F)(F)F)cn1 [Compound 274, 3-[(5-chloro-2-pyrimidinyl)oxy]-2-[4-(2,2,2-trifluoroethoxy)-1H-pyrazol-1-yl]benzonitrile]
- pest or weed control at 16 g/ha (bluegrass; Poa annua, post-emergence, Postemergence, 16 g ai/ha, scale 0 to 100 (0 no effect, 100 complete control), read-out: Plant response rating, Bluegrass): 20%
- pest or weed control at 31 g/ha (bluegrass; Poa annua, post-emergence, Postemergence, 31 g ai/ha, scale 0 to 100 (0 no effect, 100 complete control), read-out: Plant response rating, Bluegrass): 25%
- pest or weed control at 62 g/ha (bluegrass; Poa annua, post-emergence, Postemergence, 62 g ai/ha, scale 0 to 100 (0 no effect, 100 complete control), read-out: Plant response rating, Bluegrass): 30%
- pest or weed control at 125 g/ha (bluegrass; Poa annua, post-emergence, Postemergence, 125 g ai/ha, scale 0 to 100 (0 no effect, 100 complete control), read-out: Plant response rating, Bluegrass): 30%
- corn plant response (injury) rating, 0-100 at 31 g/ha (corn; [2]): 10%
- corn plant response (injury) rating, 0-100 at 62 g/ha (corn; [3]): 10%
- corn plant response (injury) rating, 0-100 at 125 g/ha (corn; [4]): 15%
- corn plant response (injury) rating, 0-100 at 8 g/ha (corn; [5]): 10%
- corn plant response (injury) rating, 0-100 at 16 g/ha (corn; [1]): 15%
- pest or weed control at 31 g/ha (wild poinsettia; [2]): 70%
- pest or weed control at 62 g/ha (wild poinsettia; [3]): 70%
- pest or weed control at 125 g/ha (wild poinsettia; [4]): 70%
- pest or weed control at 8 g/ha (wild poinsettia; [5]): 50%
- pest or weed control at 16 g/ha (wild poinsettia; [1]): 65%
- pest or weed control at 31 g/ha (palmer pigweed; [2]): 85%
- pest or weed control at 62 g/ha (palmer pigweed; [3]): 95%
- pest or weed control at 125 g/ha (palmer pigweed; [4]): 100%
- pest or weed control at 8 g/ha (palmer pigweed; [5]): 70%
- pest or weed control at 16 g/ha (palmer pigweed; [1]): 65%
- pest or weed control at 31 g/ha (barnyardgrass; [2]): 20%
- pest or weed control at 62 g/ha (barnyardgrass; [3]): 10%
- pest or weed control at 125 g/ha (barnyardgrass; [4]): 60%
- pest or weed control at 8 g/ha (barnyardgrass; [5]): 5%
- pest or weed control at 16 g/ha (barnyardgrass; [1]): 10%
